Test results published in patent US4710505A, “Asymmetric heterocyclic ester derivatives of 1,4-dihydropyridine-3,5-dicarboxylic acids” (Societe de Recherches Industrielles (S.O.R.I.), priority 1985, dated 1987).
Read-outs that look alike come from different tables or passages of the source.

Legend:
[1] = system: spontaneously hypertensive rats; assay: Antihypertensive activity in spontaneously hypertensive rats, intravenous administration; format: in vivo
Excerpt: 2. Intravenous administration
Spontaneously hypertensive rats aged between 16 and 20 weeks are used. They are anesthetized with diethyl ether, a cannula is inserted into the caudal artery to measure the arterial pressure and a catheter is inserted into the right jugular vein to administer the compounds as described previously (L. S. Watson and L. T. Ludden, New Antihypertensive Drugs, pages 87-96, Spectrum Publication, Inc., 1976).
Each curve C relates to the control group receiving only the vehicle and each curve T relates to the treated group [n (number of animals per group)=4-7]. The said groups are compared either by analysis of variance, if the variances are homogenous (Bartlett's homocedasticity test), or by Kruskall-Wallis's non-parametric test (the statistically significant results being represented as follows:
FIGS. 1-6 relate to the variation in systolic pressure, expressed in mm Hg (1 mm Hg corresponds approximately to 1.333×10^2 Pa), as a function of time, expressed in minutes, and FIGS. 1a-6a relate to the variation in diastolic pressure, also expressed in mm Hg, as a function of time, expressed in minutes, for the treated groups (curves T) compared with the corresponding control groups (curves C), the doses of products administered being as follows:
FIGS. 2 and 2a: nicardipine at 30 μg/kg i.v.,
FIGS. 3 and 3a: Example 2 at 30 μg/kg i.v.,
FIGS. 4 and 4a: Example 7 at 100 μg/kg i.v.,
FIGS. 5 and 5a: Example 8 at 300 μg/kg i.v., and
FIGS. 6 and 6a: Example 11 at 30 and 100 μg/kg i.v. (curves T1 and T2).

anesthetized dogs = assay: Hemodynamic effects on anesthetized dogs, intraduodenal administration; format: in vivo, Mongrel dogs; conditions: 0.5 mg/kg
Description: III. HEMODYNAMIC EFFECTS ON ANESTHETIZED DOGS Mongrel dogs are anesthetized with pentobarbital sodium (25 mg/kg i.v.). Each animal is placed under artificial respiration and a catheter is introduced into the aorta to measure the arterial pressure. The outputs of the aorta (O. Aor.), right femoral artery (O. Fem.) and left coronary artery (descending part) (O. Cor.) are measured continuously by means of electromagnetic rings. The total peripheral resistances (T.P.R.) are also calculated. […]

[2] = system: spontaneously hypertensive rats; assay: Antihypertensive activity in spontaneously hypertensive rats, oral administration; format: in vivo; conditions: 30 mg/kg; for change in vivo at 30 mg/kg: Rattus norvegicus
Description: Spontaneously hypertensive rats aged between 16 and 20 weeks are used. The systolic pressure is measured by plethysmography and the heart rate is obtained from the pressure graph. The compounds studied are administered orally.

rabbit aorta = assay: Relaxing effect on isolated rabbit aorta contracted (depolarized) by KCl; conditions: Oryctolagus cuniculus; rabbit aorta depolarized by 127 mM KCl; read-out: ED50 (dose causing a 50% relaxation of the precontracted arteries)
Description: I. RELAXING EFFECT ON ISOLATED RABBIT AORTA CONTRACTED BY KCl
The thoracic aortae of male rabbits are removed, cut into narrow strips and placed under tension in an oxygenated survival medium. The contractions of these arteries, the amplitude of which is measured using a myograph, are induced by a 127 mM solution of KCl [R. Towart et al., Arzneim.-Forsch./Drug Res. 32, 338-346 (1982)]. The compounds studied are dissolved in a mixture of anhydrous ethanol and double distilled water (1:1) v/v, the percentage of ethanol in the baths being less than or equal to 0.3% at the end of the experiment. When the contraction plateau is reached, the compound is added to the medium in increasing doses every 15 minutes.

in vivo = conditions: rat, intravenous, male Wistar rats weighing 300 g
Description: The LD50 was determined by intravenous administration to male Wistar rats weighing 300 g.

[3] = versus nicardipine and nifedipine

With `COC(=O)C1=C(C)NC(C)=C(C(=O)OCC2COC3(CCCCC3)O2)C1c1cccc([N+](=O)[O-])c1` (centres unmarked) [Example 2, methyl (1,4-dioxaspiro[4,5]decan-2-yl)methyl 1,4-dihydro-2,6-dimethyl-4-(3-nitrophenyl)pyridine-3,5-dicarboxylate] the “drop in systolic and diastolic pressures (in words)” value ([1]; 30 μg/kg i.v., versus nicardipine 30 μg/kg and nifedipine 300 μg/kg i.v.) was “greater drop in systolic and diastolic pressures than nicardipine at the same dose and nifedipine at 10 times the dose”, the “duration of the antihypertensive effect (in words)” value ([1]; single i.v. dose, Ex. 2 30, Ex. 7 100, Ex. 8 300, Ex. 11 30 and 100 μg/kg, versus nicardipine and nifedipine) was “notably longer than that of nicardipine and nifedipine” and the “% variation D.P. (diastolic pressure)” value (anesthetized dogs) was -41.2%. For the same compound, the “% variation O. Aor. (output of the aorta)” value (anesthetized dogs) was “+40.2%”, the “% variation O. Cor. (output of left coronary artery)” value (anesthetized dogs) was “+89.5%” and the “% variation O. Fem. (output of right femoral artery)” value (anesthetized dogs) was “+180.5%”. The “duration of the effect, D.P. (diastolic pressure)” value (anesthetized dogs) was 240 min, the “duration of the effect, O. Aor. (output of the aorta)” value (anesthetized dogs) was 300 min and the “duration of the effect, O. Cor. (output of left coronary artery)” value (anesthetized dogs) was 300 min. The “duration of the effect, O. Fem. (output of right femoral artery)” value (anesthetized dogs) was 300 min, the “% variation T.P.R. (total peripheral resistances)” value (anesthetized dogs; calculated) was -53.4% and the “duration of the effect, T.P.R. (total peripheral resistances)” value (anesthetized dogs; calculated) was 300 min. The “cardiac, femoral and coronary outputs (in words)” value (anesthetized dogs; [3]) was “increased for a longer time and to a greater extent”, the “drop in total peripheral resistances (in words)” value (anesthetized dogs; [3]) was “greater drop in total peripheral resistances than nicardipine and nifedipine” and the “duration of drop in total peripheral resistances (in words)” value (anesthetized dogs; [3]) was “considerably longer”. The “duration of the effect, Systolic pressure” value [2] was over 24 h, the change in vivo at 30 mg/kg ([2]; read-out: % variation Heart rate) was 24.5% and the change in vivo at 30 mg/kg ([2]; read-out: % variation Systolic pressure) was -45.4 ± 6.3%. For the same compound, the EC50 (rabbit aorta) was 0.05 µM and the LD50 (in vivo) was 27.9 mg/kg.
